Data on 23 compounds can be found in ChEMBL document CHEMBL1697723, “A predictive ligand-based Bayesian model for human drug-induced liver injury” (Drug Metab Dispos, 2010).

The test system of one data set is Hepatotoxicity. Description: Human drug-induced liver injury (DILI) modelling dataset from Ekins et al.
Conditions: not given
Turning to `CC(=O)OCC1=C(C(=O)[O-])N2C(=O)[C@@H](NC(=O)CSc3ccncc3)[C@H]2SC1.[Na+]` [CEPHAPIRIN SODIUM], the Hepatotoxicity result is “DILI negative (test set)”.
Still for that read-out and setting: in the case of `CC1=C(C(=O)O)N2C(=O)[C@@H](NC(=O)[C@H](N)C3=CCC=CC3)[C@H]2SC1` [CEPHRADINE] it was “DILI negative (test set)”.
On to `COCc1c(C(C)C)nc(C(C)C)c(/C=C/[C@@H](O)C[C@@H](O)CC(=O)O)c1-c1ccc(F)cc1` [CERIVASTATIN], for which the Hepatotoxicity result is given as “DILI positive (test set)”.
Turning to `C[C@H](CCC(=O)O)[C@H]1CC[C@H]2[C@@H]3[C@H](O)C[C@@H]4C[C@H](O)CC[C@]4(C)[C@H]3CC[C@]12C` [CHENODIOL], the Hepatotoxicity entry is reported as “DILI positive (training set)”.
In the case of `CCCCCCCCCCCCCCCC(=O)OC[C@@H](NC(=O)C(Cl)Cl)[C@H](O)c1ccc([N+](=O)[O-])cc1` [CHLORAMPHENICOL PALMITATE], the Hepatotoxicity entry is “DILI positive (training set)”.
In the case of `CCN(CC)CCCC(C)Nc1ccnc2cc(Cl)ccc12.O=P(O)(O)O.O=P(O)(O)O` (stereo not drawn) [CHLOROQUINE PHOSPHATE], the Hepatotoxicity entry is “DILI negative (test set)”.
As to `CN(C)CCC(c1ccc(Cl)cc1)c1ccccn1.O=C(O)/C=C\C(=O)O` (stereo not drawn) [CHLORPHENIRAMINE MALEATE], the Hepatotoxicity entry is reported as “DILI positive (training set)”.
With `CN(C)CCCN1c2ccccc2Sc2ccc(Cl)cc21` [CHLORPROMAZINE], the Hepatotoxicity result is on record as “DILI positive (training set)”.
`CCCNC(=O)NS(=O)(=O)c1ccc(Cl)cc1` [CHLORPROPAMIDE]: the Hepatotoxicity result is reported as “DILI positive (test set)”.
With `CN(C)[C@@H]1C(O)=C(C(N)=O)C(=O)[C@@]2(O)C(O)=C3C(=O)c4c(O)ccc(Cl)c4[C@@](C)(O)[C@H]3C[C@@H]12.Cl` [CHLORTETRACYCLINE HYDROCHLORIDE], the Hepatotoxicity entry is “DILI positive (training set)”.
As for `Cc1cc(C2CCCCC2)n(O)c(=O)c1` [CICLOPIROX], the Hepatotoxicity result is recorded as “DILI negative (training set)”.
The same measure, in the same setting: in the case of `CC1(COc2ccc(CC3SC(=O)NC3=O)cc2)CCCCC1` (stereo not drawn) [CIGLITAZONE] it was “DILI positive (test set)”.
The same measure, in the same setting: as for `O=C(O)c1cc(-c2ccccc2)nc2ccccc12` [CINCHOPHEN], the entry is “DILI positive (test set)”; as for `CC(C)(Oc1ccc(C2CC2(Cl)Cl)cc1)C(=O)O` (stereo not drawn) [CIPROFIBRATE], “DILI positive (training set)”; as for `COc1cc(N)c(Cl)cc1C(=O)NC1CCN(CCCOc2ccc(F)cc2)CC1OC` (stereo not drawn) [CISAPRIDE], “DILI negative (training set)”.
Same read-out and setting: in the case of `CN(C)CCCC1(c2ccc(F)cc2)OCc2cc(C#N)ccc21` (stereo not drawn) [CITALOPRAM] it was “DILI negative (training set)”; in that of `C[N+](C)(C)CCOP(=O)(O)OP(=O)([O-])OC[C@H]1O[C@@H](n2ccc(N)nc2=O)[C@H](O)[C@@H]1O` [CITICOLINE], “DILI negative (test set)”.
Regarding `Nc1nc(Cl)nc2c1ncn2[C@H]1C[C@H](O)[C@@H](CO)O1` [CLADRIBINE], the Hepatotoxicity entry is recorded as “DILI negative (training set)”.
As for `CC[C@H]1OC(=O)[C@H](C)[C@@H](O[C@H]2C[C@@](C)(OC)[C@@H](O)[C@H](C)O2)[C@H](C)[C@@H](O[C@@H]2O[C@H](C)C[C@H](N(C)C)[C@H]2O)[C@](C)(OC)C[C@@H](C)C(=O)[C@H](C)[C@@H](O)[C@]1(C)O` [CLARITHROMYCIN], the Hepatotoxicity entry is recorded as “DILI positive (test set)”.
As for `CN1CCC[C@@H]1CCO[C@](C)(c1ccccc1)c1ccc(Cl)cc1.O=C(O)/C=C/C(=O)O` [CLEMASTINE FUMARATE], the Hepatotoxicity result is listed as “DILI negative (test set)”.
`NC1CCN(c2c(F)cc3c(=O)c(C(=O)O)cn(C4CC4)c3c2Cl)C1` (stereo not drawn) [CLINAFLOXACIN]: the Hepatotoxicity result is given as “DILI negative (training set)”.

The data set is the same for the next values; noted with them: Liver.
With `ClC(Cl)Cl` [CHLOROFORM], the Hepatotoxicity result was “DILI positive (test set)”.
On to `CN/C(=N/CCSCc1nc[nH]c1C)NC#N` [CIMETIDINE], for which the Hepatotoxicity entry is given as “DILI negative (training set)”.
